Test systems include SK-OV-3 ovarian; SK-MEL-5 melanoma; NCI-H522 lung; OVCAR-8 ovarian; NCI/ADR-RES ovarian; CAKI-1 renal; HOP-92 NSCLC; UO-31 renal; SNB-75 CNS; KM12 colon; NCI-H226 lung; HS 578T breast; OVCAR-5 ovarian; HL-60(TB) leukemia; COLO 205 colon; IGROV1 ovarian; RXF 393 renal; MDA-N; PC-3 prostate; M14 melanoma.
Test in all cases: NCI tumour cell line growth inhibition, 48 h

Molecules are shown by their SMILES.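 These data come from cells grown in 96-well plates and exposed to compound for 48 hours at five concentrations. TGI is the concentration that stops growth completely.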

Consider `O=C1/C(=C/c2ccco2)N=C2Sc3c(nc[nH]c3=O)N12`, for which the TGI with SK-OV-3 ovarian, in the assay with SK-MEL-5 melanoma, in the assay with NCI-H522 lung, in the assay on OVCAR-8 ovarian, in the assay with NCI/ADR-RES ovarian and in the assay with CAKI-1 renal was more than 100 µM throughout. Further, the TGI in the assay on HOP-92 NSCLC, in the assay on UO-31 renal, with SNB-75 CNS, in the assay on KM12 colon, with NCI-H226 lung and in the assay with HS 578T breast was more than 100 µM throughout. Besides, the TGI with OVCAR-5 ovarian, in the assay on HL-60(TB) leukemia, with COLO 205 colon, in the assay on IGROV1 ovarian, in the assay on RXF 393 renal and with MDA-N was more than 100 µM throughout. Moreover, the TGI in the assay on PC-3 prostate and in the assay with M14 melanoma was more than 100 µM throughout.

Consider `O=C(O)c1cc2c(cc1CC(Cc1ccc3c(c1)CCCC3)C(=O)O)CCCC2` (stereo not given), for which the TGI in the assay on SK-OV-3 ovarian, in the assay with SK-MEL-5 melanoma, in the assay with NCI-H522 lung, in the assay with OVCAR-8 ovarian, in the assay on NCI/ADR-RES ovarian and with CAKI-1 renal was more than 100 µM throughout. The TGI in the assay with HOP-92 NSCLC, in the assay with UO-31 renal, in the assay on SNB-75 CNS, in the assay on KM12 colon, with NCI-H226 lung and with HS 578T breast was more than 100 µM throughout. Besides, the TGI with OVCAR-5 ovarian, in the assay on HL-60(TB) leukemia, in the assay on COLO 205 colon, with IGROV1 ovarian, in the assay on RXF 393 renal and in the assay on MDA-N was more than 100 µM throughout. In addition, the TGI with PC-3 prostate and in the assay on M14 melanoma was more than 100 µM in each case.

Regarding `CC1=NNC(=O)C1C1CC(c2c[nH]c3ccccc23)=NN(C(N)=O)C1=O` (stereo not given), the TGI in the assay on SK-OV-3 ovarian, with SK-MEL-5 melanoma, in the assay on NCI-H522 lung, in the assay with OVCAR-8 ovarian, in the assay with NCI/ADR-RES ovarian and in the assay with CAKI-1 renal was more than 100 µM each time. For the same compound, the TGI in the assay with HOP-92 NSCLC was more than 100 µM; in the assay with UO-31 renal, more than 100 µM; in the assay with SNB-75 CNS it was more than 100 µM; with KM12 colon, 88.3 µM; in the assay on NCI-H226 lung, more than 100 µM; in the assay with HS 578T breast, more than 100 µM. The TGI with OVCAR-5 ovarian, in the assay on HL-60(TB) leukemia, in the assay with COLO 205 colon, in the assay on IGROV1 ovarian, with RXF 393 renal and in the assay on MDA-N was more than 100 µM throughout. Also, the TGI in the assay with PC-3 prostate and in the assay with M14 melanoma was more than 100 µM each time.

As to `CC(=NNC(=S)Nc1cccc(C)c1)c1cccc(C(C)=NNC(=S)Nc2cccc(C)c2)n1`, the TGI is more than 100 µM with SK-OV-3 ovarian; 30.8 µM in the assay with SK-MEL-5 melanoma; 57.9 µM with NCI-H522 lung; 76.3 µM with OVCAR-8 ovarian; 76.6 µM in the assay with NCI/ADR-RES ovarian; 71.1 µM with CAKI-1 renal. Also, the TGI with HOP-92 NSCLC was 63.2 µM; with UO-31 renal, 86.3 µM; in the assay with SNB-75 CNS, 69.2 µM; with KM12 colon, 59.3 µM; in the assay with NCI-H226 lung, 95.1 µM; in the assay with HS 578T breast it was more than 100 µM. In addition, the TGI in the assay with OVCAR-5 ovarian was more than 100 µM; with HL-60(TB) leukemia, 70.1 µM; with COLO 205 colon it was 38.5 µM; in the assay with IGROV1 ovarian, 46.7 µM; with RXF 393 renal, 61.1 µM; with MDA-N, more than 100 µM. The TGI in the assay on PC-3 prostate is more than 100 µM; in the assay with M14 melanoma, 39.3 µM.

`C#C/C=C\CCCCCCCCCCCCCC/C=C\CCCCC#CC(O)C#CCCCC/C=C\CCCCCC/C=C/C(O)C#C` (stereo not given): the TGI in the assay with SK-OV-3 ovarian is more than 75 µM; with SK-MEL-5 melanoma, 17.6 µM; in the assay on NCI-H522 lung, more than 16 µM; in the assay on OVCAR-8 ovarian, more than 59.5 µM; in the assay with NCI/ADR-RES ovarian it was more than 75 µM; in the assay with CAKI-1 renal it was 18.1 µM. The TGI in the assay on HOP-92 NSCLC is 36.8 µM; with UO-31 renal it was 37.4 µM; in the assay with SNB-75 CNS, more than 75 µM; with KM12 colon, 20.1 µM; in the assay with NCI-H226 lung, more than 59.4 µM; in the assay with HS 578T breast, more than 75 µM. For the same compound, the TGI in the assay with OVCAR-5 ovarian was more than 75 µM; with HL-60(TB) leukemia, 43.6 µM; in the assay with COLO 205 colon, 35.6 µM; in the assay on IGROV1 ovarian, 31 µM; with RXF 393 renal it was 41.4 µM; in the assay with MDA-N, 24.2 µM. Further, the TGI is more than 57.7 µM with PC-3 prostate and more than 38.3 µM with M14 melanoma.

`C/C=C1\CC2C(=O)CCC2C2c3ccccc3OC12` (stereo not given): the TGI with SK-OV-3 ovarian, in the assay on SK-MEL-5 melanoma, with NCI-H522 lung, with OVCAR-8 ovarian, in the assay on NCI/ADR-RES ovarian and in the assay with CAKI-1 renal was more than 100 µM in each case. Moreover, the TGI in the assay with HOP-92 NSCLC, in the assay on UO-31 renal, with SNB-75 CNS, in the assay with KM12 colon, in the assay on NCI-H226 lung and in the assay on HS 578T breast was more than 100 µM each time. For the same compound, the TGI in the assay on OVCAR-5 ovarian was more than 100 µM; with HL-60(TB) leukemia, more than 100 µM; in the assay on COLO 205 colon it was more than 100 µM; in the assay on IGROV1 ovarian, more than 100 µM; with RXF 393 renal, more than 100 µM; with MDA-N it was 0.24 µM. For the same compound, the TGI in the assay with PC-3 prostate and in the assay on M14 melanoma was more than 100 µM in each case.

In the case of `Cc1occc1C(=S)Nc1ccc(Cl)c(/C=N/OC(C)(C)C)c1`, the TGI in the assay on SK-OV-3 ovarian worked out at 58.7 µM; with SK-MEL-5 melanoma, 33.4 µM; in the assay with NCI-H522 lung, 24.8 µM; in the assay on OVCAR-8 ovarian it was 38.8 µM; in the assay on NCI/ADR-RES ovarian, 32.7 µM; in the assay with CAKI-1 renal it was 41.1 µM. In addition, the TGI was found to be 26.5 µM in the assay on HOP-92 NSCLC; 27 µM with UO-31 renal; 56.7 µM with SNB-75 CNS; 32.3 µM in the assay on KM12 colon; 32.4 µM with NCI-H226 lung; 51.6 µM in the assay on HS 578T breast. Moreover, the TGI with OVCAR-5 ovarian was 31.3 µM; in the assay with HL-60(TB) leukemia, 51.5 µM; in the assay on COLO 205 colon, 34.1 µM; in the assay with IGROV1 ovarian, more than 56.3 µM; in the assay with RXF 393 renal, 31.1 µM; in the assay on MDA-N, 37 µM. Besides, the TGI in the assay on PC-3 prostate worked out at 33 µM; in the assay on M14 melanoma it was 40.9 µM.

The values are drawn from PubChem BioAssay (NCI).
